Test results published in ChEMBL document CHEMBL1201862, “PubChem BioAssay data set” (2004).
Activity calls are given as the source filed them.

Tests used:
[1] = biological target: Lysosomal acid glucosylceramidase (Homo sapiens, UniProt P04062); assay: Dose response cell-based high throughput screening assay to identify enhancers of beta-glucosidase activity. [Related pubchem assays: 784 ]; format: functional
Cytochrome P450 3A4 = Cytochrome P450 3A4 (Homo sapiens, UniProt P08684); conditions: Potency;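 note: confirmatory qHTS run detecting inhibitors and substrates of CYP3A4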
Cytochrome P450 2C9 = Cytochrome P450 2C9 (Homo sapiens, UniProt P11712); conditions: Potency
[2] = biological target: Melanin-concentrating hormone receptor 1 (Homo sapiens, UniProt Q99705); assay: Late-stage fluorescence-based counterscreen for antagonists of the G-protein coupled receptor 7 (GPR7): cell-based dose response assay to identify antagonists of the melanin-concentrating hormone receptor 1 (MCHR1). [Related pubchem assays (depositor defined):AID1861, AID1880, AID1952, AID2148, AID2251, AID2257, AID485339]; format: functional;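 note: stimulated with 30 nM MCH peptide agonist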
HEK293 = assay: Fluorescence-based counterscreen for potentiators or agonists of NPY-Y2: cell-based high-throughput dose response assay to identify inhibitors of cyclic nucleotide gated ion channel (CNGC) activity. In this assay, the parental HEK293 cell line transfected with a cyclic-nucleotide gated ion channel (CNGC)-based cAMP sensor is used to measure inhibition of isoproterenol-induced CNGC activity by test compound.; format: functional; conditions: Homo sapiens;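 note: stimulus is 1 µM isoproterenol at EC100 plus PDE inhibitor Ro 20-1724 at 25 µM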
[3] = biological target: Neuropeptide Y receptor type 2 (Homo sapiens, UniProt P49146); assay: Fluorescence-based cell-based high-throughput dose response assay for agonists of NPY-Y2. [Related pubchem assays: 1703 (Screening assay (CNGC inhibitors).), 1359 (Screening assay (NPY-Y2 potentiators or agonists).), 1304 (Screening assay (NPY-Y1 potentiators or agonists).), 1710 (Screening assay (NPY-Y2 agonists).), 1791 (Summary AID.)]; format: functional
[4] = biological target: Neuropeptide Y receptor type 1 (Homo sapiens, UniProt P25929); assay: Fluorescence-based counterscreen for agonists of NPY-Y2: cell-based high-throughput dose response assay for agonists of NPY-Y1.; format: functional
[5] = biological target: Eukaryotic translation initiation factor 4E (Mus musculus, UniProt P63073); assay: blockers of eIF4G binding by eIF4E – biochemical, TR-FRET, dose response (AID 855); format: functional;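 note: potency for disrupting eIF4E binding to eIF4GI seen as loss of FRET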
INS1 = assay: INS-1E survival protection against cytokine death – cell-based, luminescence, retest, dose response (AID 449756); format: functional; conditions: Rattus norvegicus;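 note: cell death triggered by IL-1 beta plus TNF-alpha plus IFN-gamma mixture; protective hits raise ATP signal compared with cytokine alone wells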
[6] = blockers of HIV-1 envelope-mediated cell-cell fusion – cherry-pick, dose response (AID 652057); format: functional, cell-based
[7] = off-target signal loss in HeLa-CEM21 co-culture – HeLa F-luc CTL cells, cherry-picked, counter-screen for HIV-1 Env fusion inhibitor project, dose response (AID 652040); format: functional, cell-based;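 note: potency for signal decrease marking cytotoxic or nonspecific inhibition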
[8] = HIV-1 AD8 envelope cell-cell fusion blockers – cherry-pick, dose response (AID 652062); format: functional, cell-based;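 note: luciferase signal from cell-cell fusion driven by HIV-1 clade B AD8 Env; potency is for inhibitors of fusion seen as a drop in luminescence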

Chain of Neuropeptide Y receptor type 2 (P49146 whole entry): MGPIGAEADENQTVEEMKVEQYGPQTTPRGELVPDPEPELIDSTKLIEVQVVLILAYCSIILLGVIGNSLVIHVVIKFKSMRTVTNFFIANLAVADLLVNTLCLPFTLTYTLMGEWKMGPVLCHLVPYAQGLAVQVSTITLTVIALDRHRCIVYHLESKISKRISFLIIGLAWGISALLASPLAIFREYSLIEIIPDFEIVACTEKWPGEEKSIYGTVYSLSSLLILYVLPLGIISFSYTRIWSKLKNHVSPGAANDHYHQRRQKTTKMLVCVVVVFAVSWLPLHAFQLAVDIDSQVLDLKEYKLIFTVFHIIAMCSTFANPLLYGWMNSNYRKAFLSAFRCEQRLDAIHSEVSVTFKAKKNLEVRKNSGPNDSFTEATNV
Chain of Cytochrome P450 2C9 (P11712 whole entry): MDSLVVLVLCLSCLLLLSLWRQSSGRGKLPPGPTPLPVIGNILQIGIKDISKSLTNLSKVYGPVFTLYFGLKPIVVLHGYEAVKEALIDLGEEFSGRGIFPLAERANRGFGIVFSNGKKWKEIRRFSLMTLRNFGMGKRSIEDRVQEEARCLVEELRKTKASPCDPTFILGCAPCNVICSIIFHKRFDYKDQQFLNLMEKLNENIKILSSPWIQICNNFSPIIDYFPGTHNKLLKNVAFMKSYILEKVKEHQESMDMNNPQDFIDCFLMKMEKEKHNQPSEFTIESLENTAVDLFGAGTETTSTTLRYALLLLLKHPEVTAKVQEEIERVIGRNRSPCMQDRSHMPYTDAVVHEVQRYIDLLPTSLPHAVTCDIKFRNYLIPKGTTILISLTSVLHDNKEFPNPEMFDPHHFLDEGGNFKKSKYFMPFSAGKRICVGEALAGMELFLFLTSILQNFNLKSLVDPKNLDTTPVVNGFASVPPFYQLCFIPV
Chain of Lysosomal acid glucosylceramidase (P04062 whole entry): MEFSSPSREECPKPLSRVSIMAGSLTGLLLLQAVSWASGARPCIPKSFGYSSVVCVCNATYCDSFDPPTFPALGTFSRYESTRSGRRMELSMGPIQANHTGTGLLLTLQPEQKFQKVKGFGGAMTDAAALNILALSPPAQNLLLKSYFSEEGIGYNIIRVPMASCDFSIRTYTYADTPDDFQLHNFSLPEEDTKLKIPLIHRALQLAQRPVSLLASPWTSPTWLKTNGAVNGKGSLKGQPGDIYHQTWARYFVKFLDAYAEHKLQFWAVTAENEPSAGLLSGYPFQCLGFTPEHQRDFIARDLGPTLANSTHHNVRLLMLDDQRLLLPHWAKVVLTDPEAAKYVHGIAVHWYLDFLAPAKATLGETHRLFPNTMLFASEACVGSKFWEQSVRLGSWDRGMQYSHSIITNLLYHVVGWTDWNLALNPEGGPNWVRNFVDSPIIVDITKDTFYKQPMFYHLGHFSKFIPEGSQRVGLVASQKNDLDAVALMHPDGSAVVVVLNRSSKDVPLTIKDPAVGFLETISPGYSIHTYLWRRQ
Chain of Melanin-concentrating hormone receptor 1 (Q99705 whole entry): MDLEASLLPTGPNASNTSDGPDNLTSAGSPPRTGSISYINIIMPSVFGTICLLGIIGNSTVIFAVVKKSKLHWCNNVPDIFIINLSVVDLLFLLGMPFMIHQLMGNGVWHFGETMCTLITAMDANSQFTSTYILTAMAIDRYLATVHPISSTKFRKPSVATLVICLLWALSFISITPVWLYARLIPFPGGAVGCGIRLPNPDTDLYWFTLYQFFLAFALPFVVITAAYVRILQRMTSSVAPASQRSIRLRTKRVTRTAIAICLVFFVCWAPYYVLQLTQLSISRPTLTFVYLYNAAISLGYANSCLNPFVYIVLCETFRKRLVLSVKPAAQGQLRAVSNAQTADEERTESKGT
Chain of Cytochrome P450 3A4 (P08684 whole entry): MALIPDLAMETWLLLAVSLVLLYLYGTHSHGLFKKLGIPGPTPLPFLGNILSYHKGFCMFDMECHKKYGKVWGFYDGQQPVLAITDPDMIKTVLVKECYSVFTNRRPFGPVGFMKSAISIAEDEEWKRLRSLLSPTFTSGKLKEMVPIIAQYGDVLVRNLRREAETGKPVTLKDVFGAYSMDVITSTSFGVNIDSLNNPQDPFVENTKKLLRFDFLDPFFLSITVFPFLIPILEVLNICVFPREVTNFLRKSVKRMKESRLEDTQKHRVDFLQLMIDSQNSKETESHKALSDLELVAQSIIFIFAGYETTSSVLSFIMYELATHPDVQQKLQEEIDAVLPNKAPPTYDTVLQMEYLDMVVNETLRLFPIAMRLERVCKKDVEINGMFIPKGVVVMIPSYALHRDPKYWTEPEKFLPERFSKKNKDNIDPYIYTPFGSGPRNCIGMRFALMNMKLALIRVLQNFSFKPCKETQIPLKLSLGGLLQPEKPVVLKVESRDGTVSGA
Chain of Eukaryotic translation initiation factor 4E (P63073 whole entry): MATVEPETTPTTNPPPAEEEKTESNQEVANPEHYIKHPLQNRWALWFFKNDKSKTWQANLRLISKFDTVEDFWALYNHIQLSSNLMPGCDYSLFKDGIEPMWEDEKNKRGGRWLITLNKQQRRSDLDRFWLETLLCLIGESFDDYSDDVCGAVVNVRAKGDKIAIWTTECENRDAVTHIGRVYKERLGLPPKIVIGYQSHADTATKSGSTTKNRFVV
Chain of Neuropeptide Y receptor type 1 (P25929 whole entry): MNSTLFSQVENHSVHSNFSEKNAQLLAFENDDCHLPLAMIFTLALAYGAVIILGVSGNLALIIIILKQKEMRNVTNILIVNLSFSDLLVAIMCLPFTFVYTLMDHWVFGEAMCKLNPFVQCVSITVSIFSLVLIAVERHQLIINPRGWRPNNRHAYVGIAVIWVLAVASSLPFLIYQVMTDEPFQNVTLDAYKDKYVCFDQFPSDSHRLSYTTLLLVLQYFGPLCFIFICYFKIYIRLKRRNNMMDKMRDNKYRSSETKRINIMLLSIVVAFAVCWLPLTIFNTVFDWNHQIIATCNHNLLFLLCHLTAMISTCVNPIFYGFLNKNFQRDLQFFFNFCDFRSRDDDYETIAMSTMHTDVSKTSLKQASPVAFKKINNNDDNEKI

**Q.** For `CC(C)Oc1cccc(C(=O)Nc2ccccc2N2CCOCC2)c1`, which EC50 [1] is on record?
**A.** > 50 µM (not active)

**Q.** What does the source list for `CCCCCCCC#Cc1ccccc1C(NC(=O)OC)C(C(=O)OC)C(=O)OC` (configuration not stated)?
**A.** AC50 (Cytochrome P450 3A4): 3.16 µM (inconclusive); AC50 (Cytochrome P450 2C9): 7.94 µM (inconclusive)

**Q.** Which IC50 [2] does the source give for `Cc1ccc(-n2ncc(Cl)c(Oc3ccccc3)c2=O)cc1` here?
**A.** 13.7 µM (inactive)

**Q.** With `N#C/C(=N\Nc1ccc(Cl)cc1)C(=O)c1ccccc1` as the molecule, how does the EC50 (HEK293) read?
**A.** 7.25 µM (active)

**Q.** And the EC50 [3]?
**A.** 9.92 µM (active)

**Q.** And the EC50 [4]?
**A.** 9.38 µM (active)

**Q.** And the IC50 [5]?
**A.** > 64 µM (inactive)

**Q.** And the AC50 (INS1)?
**A.** 3.07 µM (active)

**Q.** What about the AC50 [6] of the same molecule?
**A.** 39.2 µM (active)

**Q.** What about the AC50 [7] of the same molecule?
**A.** 42 µM (active)

**Q.** What about the AC50 [8] of the same molecule?
**A.** 24.5 µM (active)
